Columns and labels:
Vero cells [1] = assay: Vero cells detachment from T-flasks; assay type: cell-based; conditions: 100 μg/ml TZD10 + 1.34 mM EDTA in PBS, 40 minutes
Description: Vero cells were grown on for 6 days in T-flask with DMEM+10% FCS+Hepes+Glutamine+Pen-strep (Beit HaEmek). The cells were then washed with PBS and incubated for 40 minutes with 100 μg/ml TZD10+1.34 mM (about 0.5 mg/ml) EDTA in PBS without calcium and magnesium (Beit HaEmek).

Vero cells [2] = assay: Vero cell viability assay (XTT); assay type: cell-based; conditions: 160 minutes
Description: The effect of TZD10 on the viability of Vero cells was detected by incubating the cells for 40 minutes with TZD10, and further incubation for 120 minutes with the XTT reagents in the same medium without washings, so that the total incubation time with TZD10 was 160 minutes. The cells were treated with TZD10 for 40 minutes without the XTT reagents that were then added for further 120 minutes incubation.

[3] = Solubility observed in the Vero cell assay wells; assay type: physicochemical; conditions: at a concentration of 100 μg/ml and above; crystals at bottom of well
V. harveyi strains = assay: MIC, broth dilution antibacterial susceptibility test; assay type: cell-based
Description: A series of V. harveyi strains (wild-type and mutants), marine bacteria which are used as a widely accepted model for testing quorum sensing, was used in the experiments below.
MIC was determined according to the CLSI, formerly NCCLS (National Committee for Clinical Laboratory Standards) recommendation for broth dilution antibacterial susceptibility test.
All the tested V. harveyi strains (adjusted to 0.5 MacFarlane standard suspension) were grown at 30° C., in the presence of the tested agent at concentrations ranging from 2 μM to 10 mM, in 96-well transparent micro-titration plates (NUNC, Denmark).
After 18 hours of incubation, bacterial growth was determined according to the density measured by absorbance at 595 nm (GENios reader TECAN-Austria).
Each experiment was conducted in triplicate samples and repeated three times. Based on MIC results, the exemplary anti-biofilm forming agent with the highest MIC values (lowest antibacterial activity) was selected for the anti-quorum sensing activity screening assay.

Compound: CCCCCCCCC/C=C1\SC(=O)NC1=O [TZD10, (Z)-5-decylidenethiazolidine-2,4-dione]
- cell release from T-flask (Vero cells [1]): could be released from the flask by pipettetion
- toxicity to Vero cells (Vero cells [2]; 125 μg/ml and above): partially cytotoxic
- toxicity to Vero cells (Vero cells [2]; up to 100 μg/ml): not toxic
- solubility [3]: not completely soluble
- antibacterial activity (V. harveyi strains; V. harveyi mutants and wild-type): lack of antibacterial activity per se
- MIC (V. harveyi strains; Vibrio harveyi): < 10 mM
- MIC (V. harveyi strains; strain BB120 (wild-type)): <10 mM
- MIC (V. harveyi strains; strain BB170 (sensor 1-, sensor 2+)): <10 mM
- MIC (V. harveyi strains; strain BB721 (LuxO null)): <10 mM
- MIC (V. harveyi strains; strain BB886 (sensor 1+, sensor 2-)): <10 mM
